Data reported in patent publication US20160144021A1, “Vaccine Composition And Method Of Use” (MEDIMMUNE, LLC, priority 2013, published 2016).

Experiments:
Format in all cases: in vivo
RSV A2 [1] = experiment: GFP-tagged RSV A2 micro-neutralization of sera, naive BALB/c mice; conditions: day 28, prior to challenge, 0.3 μg RSV sF days 0 and 14
RSV sF = experiment: Serum F-specific IgA ELISA, 1x RSV seropositive BALB/c mice; conditions: Day 14; RSV sF at 10 μg, RSV sF+GLA-SE at any of the 3 doses
Description: Serology readouts were made at Days 0, 14, 28, 42, 56, and 73 for each group. Animals were lightly anesthetized with isoflurane and bled intraorbitally. Serum was separated and stored at −20° C. and thawed for testing. Total anti-F IgG were measured at each timepoint, with anti-F IgG1 and anti-F IgG2a ELISA endpoint dilution titers measured at Day 0 and Day 42. RSV neutralization titer was determined by a RSV A2-GFP microneutralization assay. The polyclonal nature of the anti-F IgG response was evaluated on Day 42 by competition ELISA with site-specific monoclonal antibodies to RSV-F. Anti-F IgA endpoint dilution titers were measured at Day 14 for each group.

RSV A2 [2] = experiment: Lung viral titers by plaque assay after RSV challenge, naive BALB/c mice
[3] = system: RSV-F-derived MHC I restricted peptide; experiment: Granzyme B ELISPOT of splenocytes, naive BALB/c mice; conditions: splenocytes 4 days post challenge
From the text: FIGS. 1A-F are graphs showing immune responses to adjuvanted RSV sF vaccines in naïve BALB/c mice. Mice (N=7 per group) were immunized at days 0 and 14 with the indicated vaccines and challenged with 6 log10 PFU of RSV at day 28. Representative data shown from 1 of 2 experiments run with all groups. (A) Lung Viral Titers. Residual virus in the lungs of animals 4 days post challenge was quantified by plaque assay. Individual results are presented in log10, along with a bar representing the group geometric mean. Individuals with undetectable titers were scored at the assay limit of detection (LOD), ˜1.4 log10. (B) Serum RSV-GFP Neutralizing Titers. […] Individuals with undetectable titers were scored at the assay limit of detection (LOD) of 3.3 log2, indicated by a dashed line. […] Shown are the specific IFNγ, IL-5, IL-13, and IL-17 responses to an immunodominant MHC II restricted RSV-F peptide pool calculated by subtracting media control values from test values in multiplexed cytokine analysis. […] Day 28 sera (n=7 per group) were evaluated for F-specific IgG1 and IgG2a isotypes by endpoint titer ELISA. […]
Th1-type responses to a vaccine such as those seen with RSV sF+GLA-SE may support the development of strong CD8 T cell responses. […] To evaluate the cytolytic potential of these responding cells, we evaluated F-specific Granzyme B secretion by ELISPOT.

RSV A2 [4] = experiment: Lung and nose viral titers by plaque assay after RSV challenge, naive cotton rats; conditions: 0.3 μg RSV sF IM, 4 days post challenge
RSV A2 [5] = experiment: RSV A2-GFP microneutralization of sera, naive Sprague Dawley rats; conditions: Day 22, 22 days post Dose 1; RSV sF 10 and 100 μg groups
Description: In a subsequent study, the immunogenicity and protection following a prime-boost regimen of RSV-SF was evaluated. 40 naive female Sprague Dawley rats were divided into designated vaccine cohorts of 5-6 animals per cohort. Briefly, test groups were given RSV sF (10 μg or 100 μg per animal) without adjuvant or RSV sF (10 μg or 100 μg per animal) with GLA-SE (2.5 μg in 2% SE). Negative control groups were dosed with placebo (PBS buffer) or adjuvant GLA-SE (2.5 μg/2%) without RSV sF. […] Groups 1-6 were inoculated IM with 500 μL of designated vaccine article on Day 0 and Day 22, while Group 7 was inoculated IN with 200 μL of RSV A2 virus on day 0 only. […] Rats were euthanized at 4 days post challenge on Day 46, the day of peak viral replication determined from Study 1. Lungs (excluding 1 lobe which was formalin-fixed) and noses were homogenized and quantified for viral titers.
Serological responses to vaccination were evaluated at 6 hours post immunization, D22, and D42 for all animals and at Day 14 for a subset of 3 animals per group. […] Serum obtained 6 hours post-immunization was evaluated for cytokine titers by multiplexed ELISA. Serum from Days 14, 22, and 42 were measured for total anti-F IgG ELISA endpoint dilution titers. Day 42 serum was evaluated for the specific contribution of IgG1, IgG2a, and IgG2b anti-F responses by ELISA endpoint dilution titers. […]

RSV sF: RSV soluble F protein, amino acids 1-524 of the RSV A2 F sequence lacking the transmembrane domain, given without adjuvant
serum RSV neutralizing titers (RSV A2 [1]): 4.1 log2 | serum F-specific IgA titers versus seropositive animals vaccinated with PBS (RSV sF): significantly higher serum F-specific IgA titers | animals having detectable lung viral titers (RSV A2 [2]; 4 days post challenge): 4/7 | lung protection (full = 100-fold reduction vs PBS) (RSV A2 [2]; 4 days post challenge): partial lung protection | detectable lung viral titers (individual animals) (RSV A2 [2]; naive BALB/c, IM days 0 and 14, 0.3 μg RSV sF, challenge day 28, 4 days post challenge): 2.3-3.0 log10 pfu/gram | F-specific Granzyme B ELISPOT responses (mean) [3]: 18 | mean RSV titer in the lungs (RSV A2 [4]): 5.4 log10 pfu/gram | mean RSV titer in the nose (RSV A2 [4]): 4.9 log10 pfu/gram | serum neutralizing titers (log2 GMT IC50) (RSV A2 [5]): not significantly different from placebo
